Assay: Inhibitory activity against gastrin receptor

Cc1cccc(NC(=O)NC2N=C(c3ccccc3)c3ccccc3N(CC(=O)NCCCOc3cccc(CN4CCCCC4)c3)C2=O)c1 (stereo not given) [2-[2-Oxo-5-phenyl-3-(3-m-tolyl-ureido)-2,3-dihydro-benzo[e][1,4]diazepin-1-yl]-N-[3-(3-piperidin-1-ylmethyl-phenoxy)-propyl]-acetamide]
IC50: 155 nM

Cc1cccc(NC(=O)NC2N=C(c3ccccc3)c3ccccc3N(CC(=O)NCC(=O)NCCCOc3cccc(CN4CCCCC4)c3)C2=O)c1 (stereo not given) [2-[2-Oxo-5-phenyl-3-(3-m-tolyl-ureido)-2,3-dihydro-benzo[e][1,4]diazepin-1-yl]-N-{[3-(3-piperidin-1-ylmethyl-phenoxy)-propylcarbamoyl]-methyl}-acetamide]
IC50: 790 nM

Cc1cccc(NC(=O)NC2N=C(c3cccc(OCC(=O)NCCCOc4cccc(CN5CCCCC5)c4)c3)c3ccccc3N(C)C2=O)c1 (stereo not given) [2-{3-[1-Methyl-2-oxo-3-(3-m-tolyl-ureido)-2,3-dihydro-1H-benzo[e][1,4]diazepin-5-yl]-phenoxy}-N-[3-(3-piperidin-1-ylmethyl-phenoxy)-propyl]-acetamide]
IC50: 570 nM

Cc1cccc(NC(=O)NC2N=C(c3cccc(OCC(=O)NCC(=O)NCCCOc4cccc(CN5CCCCC5)c4)c3)c3ccccc3N(C)C2=O)c1 (stereo not given) [2-{3-[1-Methyl-2-oxo-3-(3-m-tolyl-ureido)-2,3-dihydro-1H-benzo[e][1,4]diazepin-5-yl]-phenoxy}-N-{[3-(3-piperidin-1-ylmethyl-phenoxy)-propylcarbamoyl]-methyl}-acetamide]
IC50: 63 nM

CN1C(=O)[C@H](NC(=O)Nc2cccc(CC(=O)NCCCOc3cccc(CN4CCCCC4)c3)c2)N=C(c2ccccc2)c2ccccc21 [2-{3-[3-((R)-1-Methyl-2-oxo-5-phenyl-2,3-dihydro-1H-benzo[e][1,4]diazepin-3-yl)-ureido]-phenyl}-N-[3-(3-piperidin-1-ylmethyl-phenoxy)-propyl]-acetamide]
IC50: 230 nM

Cc1cccc(NC(=O)NC2N=C(c3cccc(OCC(=O)NCCC(=O)NCCCOc4cccc(CN5CCCCC5)c4)c3)c3ccccc3N(C)C2=O)c1 (stereo not given) [3-(2-{3-[1-Methyl-2-oxo-3-(3-m-tolyl-ureido)-2,3-dihydro-1H-benzo[e][1,4]diazepin-5-yl]-phenoxy}-acetylamino)-N-[3-(3-piperidin-1-ylmethyl-phenoxy)-propyl]-propionamide]
IC50: 200 nM

CN1C(=O)[C@H](NC(=O)Nc2cccc(CC(=O)NCCC(=O)NCCCOc3cccc(CN4CCCCC4)c3)c2)N=C(c2ccccc2)c2ccccc21 [3-(2-{3-[3-((R)-1-Methyl-2-oxo-5-phenyl-2,3-dihydro-1H-benzo[e][1,4]diazepin-3-yl)-ureido]-phenyl}-acetylamino)-N-[3-(3-piperidin-1-ylmethyl-phenoxy)-propyl]-propionamide]
IC50: 136 nM

CN1C(=O)[C@H](NC(=O)Nc2cccc(C(=O)NCCCOc3cccc(CN4CCCCC4)c3)c2)N=C(c2ccccc2)c2ccccc21 [3-[3-((R)-1-Methyl-2-oxo-5-phenyl-2,3-dihydro-1H-benzo[e][1,4]diazepin-3-yl)-ureido]-N-[3-(3-piperidin-1-ylmethyl-phenoxy)-propyl]-benzamide]
IC50: 550 nM

Cc1cccc(NC(=O)NC2N=C(c3ccccc3)c3ccccc3N(CC(=O)NCCC(=O)NCCCOc3cccc(CN4CCCCC4)c3)C2=O)c1 (stereo not given) [3-{2-[2-Oxo-5-phenyl-3-(3-m-tolyl-ureido)-2,3-dihydro-benzo[e][1,4]diazepin-1-yl]-acetylamino}-N-[3-(3-piperidin-1-ylmethyl-phenoxy)-propyl]-propionamide]
IC50: 185 nM

Cc1cccc(NC(=O)NC2N=C(c3cccc(OCC(=O)NCCCC(=O)NCCCOc4cccc(CN5CCCCC5)c4)c3)c3ccccc3N(C)C2=O)c1 (stereo not given) [4-(2-{3-[1-Methyl-2-oxo-3-(3-m-tolyl-ureido)-2,3-dihydro-1H-benzo[e][1,4]diazepin-5-yl]-phenoxy}-acetylamino)-N-[3-(3-piperidin-1-ylmethyl-phenoxy)-propyl]-butyramide]
IC50: 60 nM

CN1C(=O)[C@H](NC(=O)Nc2cccc(CC(=O)NCCCC(=O)NCCCOc3cccc(CN4CCCCC4)c3)c2)N=C(c2ccccc2)c2ccccc21 [4-(2-{3-[3-((R)-1-Methyl-2-oxo-5-phenyl-2,3-dihydro-1H-benzo[e][1,4]diazepin-3-yl)-ureido]-phenyl}-acetylamino)-N-[3-(3-piperidin-1-ylmethyl-phenoxy)-propyl]-butyramide]
IC50: 115 nM

Cc1cccc(NC(=O)NC2N=C(c3ccccc3)c3ccccc3N(CC(=O)NCCCC(=O)NCCCOc3cccc(CN4CCCCC4)c3)C2=O)c1 (stereo not given) [4-{2-[2-Oxo-5-phenyl-3-(3-m-tolyl-ureido)-2,3-dihydro-benzo[e][1,4]diazepin-1-yl]-acetylamino}-N-[3-(3-piperidin-1-ylmethyl-phenoxy)-propyl]-butyramide]
IC50: 210 nM

Cc1cccc(NC(=O)NC2N=C(c3cccc(OCC(=O)NCCCCCC(=O)NCCCOc4cccc(CN5CCCCC5)c4)c3)c3ccccc3N(C)C2=O)c1 (stereo not given) [6-(2-{3-[1-Methyl-2-oxo-3-(3-m-tolyl-ureido)-2,3-dihydro-1H-benzo[e][1,4]diazepin-5-yl]-phenoxy}-acetylamino)-hexanoic acid [3-(3-piperidin-1-ylmethyl-phenoxy)-propyl]-amide]
IC50: 32 nM

CN1C(=O)[C@H](NC(=O)Nc2cccc(CC(=O)NCCCCCC(=O)NCCSCc3csc(N=C(N)N)n3)c2)N=C(c2ccccc2)c2ccccc21 [6-(2-{3-[3-((R)-1-Methyl-2-oxo-5-phenyl-2,3-dihydro-1H-benzo[e][1,4]diazepin-3-yl)-ureido]-phenyl}-acetylamino)-hexanoic acid [2-(2-guanidino-thiazol-4-ylmethylsulfanyl)-ethyl]-amide]
IC50: 45 nM

CN1C(=O)[C@H](NC(=O)Nc2cccc(CC(=O)NCCCCCC(=O)NCCCOc3cccc(CN4CCCCC4)c3)c2)N=C(c2ccccc2)c2ccccc21 [6-(2-{3-[3-((R)-1-Methyl-2-oxo-5-phenyl-2,3-dihydro-1H-benzo[e][1,4]diazepin-3-yl)-ureido]-phenyl}-acetylamino)-hexanoic acid [3-(3-piperidin-1-ylmethyl-phenoxy)-propyl]-amide]
IC50: 110 nM

Cc1cccc(NC(=O)NC2N=C(c3ccccc3)c3ccccc3N(CC(=O)NCCCCCC(=O)NCCCOc3cccc(CN4CCCCC4)c3)C2=O)c1 (stereo not given) [6-{2-[2-Oxo-5-phenyl-3-(3-m-tolyl-ureido)-2,3-dihydro-benzo[e][1,4]diazepin-1-yl]-acetylamino}-hexanoic acid [3-(3-piperidin-1-ylmethyl-phenoxy)-propyl]-amide]
IC50: 16 nM

Cc1cccc(NC(=O)NC2N=C(c3ccccc3)c3ccccc3N(CC(=O)NCCSCc3csc(N=C(N)N)n3)C2=O)c1 (stereo not given) [N-[2-(2-Guanidino-thiazol-4-ylmethylsulfanyl)-ethyl]-2-[2-oxo-5-phenyl-3-(3-m-tolyl-ureido)-2,3-dihydro-benzo[e][1,4]diazepin-1-yl]-acetamide]
IC50: 3 nM

Cc1cccc(NC(=O)NC2N=C(c3cccc(OCC(=O)NCCSCc4csc(N=C(N)N)n4)c3)c3ccccc3N(C)C2=O)c1 (stereo not given) [N-[2-(2-Guanidino-thiazol-4-ylmethylsulfanyl)-ethyl]-2-{3-[1-methyl-2-oxo-3-(3-m-tolyl-ureido)-2,3-dihydro-1H-benzo[e][1,4]diazepin-5-yl]-phenoxy}-acetamide]
IC50: 135 nM

CN1C(=O)[C@H](NC(=O)Nc2cccc(CC(=O)NCCSCc3csc(N=C(N)N)n3)c2)N=C(c2ccccc2)c2ccccc21 [N-[2-(2-Guanidino-thiazol-4-ylmethylsulfanyl)-ethyl]-2-{3-[3-((R)-1-methyl-2-oxo-5-phenyl-2,3-dihydro-1H-benzo[e][1,4]diazepin-3-yl)-ureido]-phenyl}-acetamide]
IC50: 168 nM

Cc1cccc(NC(=O)NC2N=C(c3cccc(OCC(=O)NCCC(=O)NCCSCc4csc(N=C(N)N)n4)c3)c3ccccc3N(C)C2=O)c1 (stereo not given) [N-[2-(2-Guanidino-thiazol-4-ylmethylsulfanyl)-ethyl]-3-(2-{3-[1-methyl-2-oxo-3-(3-m-tolyl-ureido)-2,3-dihydro-1H-benzo[e][1,4]diazepin-5-yl]-phenoxy}-acetylamino)-propionamide]
IC50: 25 nM

CN1C(=O)[C@H](NC(=O)Nc2cccc(CC(=O)NCCC(=O)NCCSCc3csc(N=C(N)N)n3)c2)N=C(c2ccccc2)c2ccccc21 [N-[2-(2-Guanidino-thiazol-4-ylmethylsulfanyl)-ethyl]-3-(2-{3-[3-((R)-1-methyl-2-oxo-5-phenyl-2,3-dihydro-1H-benzo[e][1,4]diazepin-3-yl)-ureido]-phenyl}-acetylamino)-propionamide]
IC50: 80 nM

Cc1cccc(NC(=O)NC2N=C(c3ccccc3)c3ccccc3N(CC(=O)NCCC(=O)NCCSCc3csc(N=C(N)N)n3)C2=O)c1 (stereo not given) [N-[2-(2-Guanidino-thiazol-4-ylmethylsulfanyl)-ethyl]-3-{2-[2-oxo-5-phenyl-3-(3-m-tolyl-ureido)-2,3-dihydro-benzo[e][1,4]diazepin-1-yl]-acetylamino}-propionamide]
IC50: 75 nM

Cc1cccc(NC(=O)NC2N=C(c3cccc(OCC(=O)NCCCC(=O)NCCSCc4csc(N=C(N)N)n4)c3)c3ccccc3N(C)C2=O)c1 (stereo not given) [N-[2-(2-Guanidino-thiazol-4-ylmethylsulfanyl)-ethyl]-4-(2-{3-[1-methyl-2-oxo-3-(3-m-tolyl-ureido)-2,3-dihydro-1H-benzo[e][1,4]diazepin-5-yl]-phenoxy}-acetylamino)-butyramide]
IC50: 14 nM

CN1C(=O)[C@H](NC(=O)Nc2cccc(CC(=O)NCCCC(=O)NCCSCc3csc(N=C(N)N)n3)c2)N=C(c2ccccc2)c2ccccc21 [N-[2-(2-Guanidino-thiazol-4-ylmethylsulfanyl)-ethyl]-4-(2-{3-[3-((R)-1-methyl-2-oxo-5-phenyl-2,3-dihydro-1H-benzo[e][1,4]diazepin-3-yl)-ureido]-phenyl}-acetylamino)-butyramide]
IC50: 240 nM

Cc1cccc(NC(=O)NC2N=C(c3ccccc3)c3ccccc3N(CC(=O)NCCCC(=O)NCCSCc3csc(N=C(N)N)n3)C2=O)c1 (stereo not given) [N-[2-(2-Guanidino-thiazol-4-ylmethylsulfanyl)-ethyl]-4-{2-[2-oxo-5-phenyl-3-(3-m-tolyl-ureido)-2,3-dihydro-benzo[e][1,4]diazepin-1-yl]-acetylamino}-butyramide]
IC50: 190 nM

Reference: BindingDB's records for doi:10.1016/S0960-894X(96)00248-X (1996)
